Data reported in patent US20200129450A1, “COMPOSITION COMPRISING OSMUNDACETONE OR PHARMACEUTICALLY ACCEPTABLE SALT THEREOF FOR PREVENTING OR TREATING BONE DISEASE” (KORPHARM CO., LTD., priority 2016, published 2020).
“Also recorded” adds a separate entry of the source.

Legend:
[1] = tested on: ALP activity of MC3T3-E1 osteoblasts in co-incubation; assay: Co-culture of osteoclasts and osteoblasts: ALP activity; format: cell-based, mouse; conditions: 10 μM, vs non-treated
Procedure: 1×10^5 C57BL/6 mouse bone marrow mononuclear cells per well of a 48-well plate were prepared in the same manner as described above, and co-incubated together with 1.5×10^4 MC3T3-E1 murine osteoblasts, using 500 μL of α-MEM containing 10% FBS and 1% antibiotic (100 U/mL penicillin G and […] streptomycin) in the conditions of 37° C. and 5% CO2 while the medium was exchanged every three days.
Positive control cells were co-incubated together with osteoclast differentiation factors M-CSF (60 ng/mL) and RANKL (150 ng/mL), and osteoblast differentiation factors ascorbic acid (50 μg/mL) and 10 mM R-glycerophosphate.
Negative control cells were incubated by adding only M-CSF as a differentiation factor. In order to examine effects of osmundacetone on the differentiation of osteoclasts and osteoblasts, osmundacetone were administered at a final concentration of 10 μM into the positive control cells on day 1 after the cells were dispensed on the plate.
ALP activity was assessed using Quantichrom ALP Assay Kit (Bioassay Systems, Hayward, Calif., USA) according to manufacturer's instructions.
[…] The % activation of ALP activity was shown by comparing ALP activity of cells treated with an experimental compound and ALP activity of the non-treated control cells.
In order to investigate whether or not osmundacetone has ability to inhibit osteoclast differentiation and activate osteoblast differentiation simultaneously, bone marrow mononuclear cells collected from C57BL/6 mice and MC3T3-E1 cells as osteoblast precursor cells were co-incubated in a 48-well plate at cell concentrations of 1×10^5 bone marrow cells and […] MC3T3-E1 cells per well. The bone marrow monocyte/macrophage lineage cells in the co-incubated bone marrow cells and osteoblast precursor cells differentiated into mature multinuclear osteoclasts in the presence of M-CSF and RANKL within 6-7 days.

[2] = tested on: osteoclasts differentiated from mouse bone marrow cells; assay: TRAP assay, osteoclast proliferation and differentiation inhibitory activity; format: cell-based; conditions: for IC50: tested at 1, 4, 7 and 10 μM, TRAP-positive multinucleated cells
Procedure: Bone marrow cells were collected from the femur and shin bones of 5-8 week old male C57BL/6 mice. Muscles were removed from the bones, and stored in cold phosphate buffered saline (PBS; # CAP08-050, GenDEPOT, Katy, Tex., USA).
Both ends of each bone were cut, and the bone marrow was flushed with a flushing medium (serum-free α-MEM, 2 mM ethylenediaminetetraacetic acid) kept cool, using a 25 G needle.
Bone marrow cells were collected by centrifugation at 3,000 rpm for 3 min using Labogene 1248R (Labogene, Lynge, Denmark), and then resuspended in a wash medium. Thereafter, 8 mL of the collected bone marrow cells were overlaid on 6 mL of a lymphocyte isolation medium (LSM; #50494, MP Biomedicals, Santa Ana, Calif., USA), followed by centrifugation at 1,600 rpm for 20 minutes, thereby isolating mononuclear cells.
The mononuclear cell bands were collected from the media interface, and incubated using complete α-MEM (containing 10% fatal bovine serum (FBS; Capricorn Scientific, Ebsdorfergrund, Germany) and 1% (v/v) antibiotic (including 100 U/mL penicillin G and […] streptomycin)) in the conditions of 37° C. and 5% CO2 while the medium was exchanged every three days.
In order to promote the differentiation of osteoclasts, 1×10^5 cells were incubated in 0.5 mL of the medium per well in a 48-well plate, in the presence of osteoclast differentiation factors, M-CSF (60 ng/mL) and RANKL (150 ng/mL), purchased from PeproTec (Seoul, Korea). As known, macrophages/monocytes derived from one bone marrow differentiated into mature multinucleated osteoclasts after 6 days (Gurt et al., 2015).
The tibia and femur of 6-8 week old male C57BL/6 mice were aseptically resected, and bone marrow cells were aseptically collected using a syringe (21 G, Korea Green Cross). The bone marrow cells were floated in 500 μL of α-MEM medium (Gibco BRL Co.) containing sodium bicarbonate (2.0 g/L), streptomycin (100 mg/L), and penicillin ([…]), dispensed in a 48-well plate, and assayed in triplicate. Mononuclear cells as precursor cells of osteoclasts were treated with RANKL and M-CSF as differentiation promoting factors, and thus differentiated into osteoclasts within 5-7 days.
2-1) Sample preparation: The hot-water extract, EA extract, or fraction of Osmunda japonica were prepared by the same methods as in section 1 of <Example 1>. The EA-2 extract was dissolved in a minimum amount of DMSO, and then diluted with water to 70% of the original volume of the hot-water extract assuming that the yield of EA-2 extraction was approximately 70%. 2-2) Sample administration: The sample was continuously administered to a medium at 1:20 (v/v; 25 μL of the sample per 500 μL of the medium) from day 1 of incubation of bone marrow cells, while the medium was exchanged every 2-3 days. 2-3) Measurement of osteoclast differentiation Osteoclasts were defined by TRAP-positive multinucleated cells stained with TRAP. As for TRAP stain solution, 5 mg of naphthol AS-MS phosphate (Sigma N-4875) as a base and 25 mg of Fast Red Violet LB salt as a color developing reagent were dissolved in about 0.5 mL of N,N-dimethylformamide, and then mixed with 0.1N NaHCO3 buffer solution (50 mL) containing 50 mM tartaric acid. The reaction reagent was stored in a refrigerator before use.
After bone marrow cells were incubated in a medium containing differentiation promoting factors for 7 days, the medium was removed, and the cells were washed with PBS, and then immobilized with PBS containing 10% formalin for 2-5 minutes. Thereafter, the cells were immobilized with a 1:1 mixture solution of ethanol and acetone, followed by drying. The immobilized cells were treated with the TRAP stain solution for 15 minutes, and washed with PBS, and then the degree of cell staining was observed by a microscope.
In the microscope field of view, cells having two or more nuclei in the TRAP-positive cells were determined to be osteoclasts, and the number of cells was measured. […]

`CC(=O)/C=C/c1ccc(O)c(O)c1` [Osmundacetone, (3E)-4-(3,4-dihydroxyphenyl)-3-buten-2-one] was tested, and the “% activation of ALP activity in co-incubation” value (“% activation of ALP activity” below) ([1]; day 7 of co-incubation) was 104%, the “% activation of ALP activity” value ([1]; day 14 of co-incubation) was 111% and the “% activation of ALP activity” value ([1]; day 21 of co-incubation) was 95%. For the same compound, the “formation of giant osteoclasts, number compared with the positive control group” value ([2]; 1 μM) was “smaller compared with the positive control group”, the “formation of giant osteoclasts / differentiation of bone marrow mononuclear cells into osteoclasts” value ([2]; 10 μM osmundacetone (printed 10M)) was “significantly inhibited; also recorded: almost completely inhibited” and the IC50 ([2]; Mus musculus, Osteoclast) was at most 8 µM. For the same compound, the inhibition at 7 µM ([2]; Mus musculus, Osteoclast, 7 μM, read-out: inhibition of differentiation of bone marrow mononuclear cells into osteoclasts) was 3 to 40%, the inhibition at 10 µM ([2]; Mus musculus, Osteoclast, 10 μM, read-out: inhibition of differentiation of bone marrow mononuclear cells into osteoclasts) was at least 95% and the “proliferation of osteoclast precursor cells” value ([2]; osmundacetone 10M as printed) was “significantly inhibited”. It also gave an IC50 [2] of 8 µM.
